Experimental data as given in US20080044491A1, “METAL-CONTAINING FORMULATIONS AND METHODS OF USE” (priority 2006, published 2008).
“And” between values parts separate entries of the source, which are not always exact repeats. Identical values can stand only once.

Tests used:
Staphylococcus aureus = assay: MIC assay (microdilution); type: cell-based
[1] = test system: Staphylococcus epidermidis; assay: MIC assay (microdilution); type: cell-based
K. pneumoniae = assay: Minimal bactericidal concentration (MBC) assay; type: cell-based, Klebsiella pneumoniae; details: K. pneumoniae NP403 (listed twice)
Method: (§1) Minimal bactericidal concentration (MBC) assay—Overnight-grown MIC plates, prepared as described in Example 16, were evaluated to determine the MIC. Culture was then sampled from wells at and near the MIC using sterile inoculating loops, and transferred to fresh MHA plates to determine if viable bacteria remained. […] The MBC was determined as the well in the MIC plate which contained the lowest concentration of silver yielding no bacterial growth on the MHA plate.

Ser. marcescens = assay: Minimal bactericidal concentration (MBC) assay; type: cell-based, Serratia marcescens
Method: as §1

Klebsiella pneumoniae = assay: MIC assay (microdilution); type: cell-based; details: K. pneumoniae NP403 (listed twice)
Shigella flexneri = assay: MIC assay (microdilution); type: cell-based; details: Shigella flexneri ATCC 12022
Streptococcus pneumoniae = assay: MIC assay (microdilution); type: cell-based; details: lactate solutions, nanocrystalline silver = range for 12 samples
Streptococcus pyogenes = assay: MIC assay (microdilution); type: cell-based; details: lactate solutions, nanocrystalline silver = range for 12 samples
E. coli = assay: Minimal bactericidal concentration (MBC) assay; type: cell-based, Escherichia coli
Method: as §1

Ps. aeruginosa = assay: Minimal bactericidal concentration (MBC) assay; type: cell-based, Pseudomonas aeruginosa; details: Ps. aeruginosa 27317 (ATCC type strain)
Method: as §1

Serratia marcescens = assay: MIC assay (microdilution); type: cell-based
Staph epidermidis = assay: Minimal bactericidal concentration (MBC) assay; type: cell-based, Staphylococcus epidermidis; details: Staph epidermidis 12228 (ATCC type strain)
Method: as §1

Escherichia coli = assay: MIC assay (microdilution); type: cell-based
Staph. aureus = assay: Minimal bactericidal concentration (MBC) assay; type: cell-based, Staphylococcus aureus
Method: as §1

[2] = test system: Mycobacterium tuberculosis H37Ra (ATCC 25177); type: cell-based
Pseudomonas aeruginosa = assay: MIC assay (microdilution); type: cell-based
[3] = Staph. aureus 6538 (ATCC type strain)
[4] = Staph. aureus 700699 (ATCC type strain)
[5] = Ser. marcescens NP402 (listed twice)
[6] = Ser. marcescens NP408 (listed twice)
[7] = E. coli 8739 (ATCC type strain)
[8] = E. coli 43745 (ATCC type strain)

Q: `O=[N+]([O-])[O-].[Ag+]` [AgNO3, silver nitrate] was tested. Which MIC (Staphylococcus aureus; S. aureus (ATCC), lactate solutions, nanocrystalline silver = range for 12 samples) did it give?
A: The MIC was 11 µg/mL.

Q: And the MIC (Staphylococcus aureus; S. aureus (clin.), lactate solutions, nanocrystalline silver = range for 12 samples)?
A: The MIC was 5 µg/mL.

Q: And the MIC (Staphylococcus aureus; [3])?
A: The MIC was 6 parts silver per million.

Q: What about the MIC (Staphylococcus aureus; [4]) of the same molecule?
A: The MIC was 3 parts silver per million.

Q: And the MIC ([1]; S. epiderm (ATCC), lactate solutions, nanocrystalline silver = range for 12 samples)?
A: Its MIC is 3 µg/mL.

Q: What about the MIC ([1]; Staph epidermidis 12228 (ATCC type strain)) of the same molecule?
A: Its MIC is 3 parts silver per million.

Q: What about the MBC (K. pneumoniae) of the same molecule?
A: Its MBC is 6 parts silver per million and 3 parts silver per million.

Q: And the MBC (Ser. marcescens; [5])?
A: Its MBC is 6 parts silver per million.

Q: What about the MBC (Ser. marcescens; [6]) of the same molecule?
A: The MBC was 6 parts silver per million and 11 parts silver per million.

Q: And the MIC (Klebsiella pneumoniae)?
A: The MIC was 6 parts silver per million.

Q: And the MIC (Shigella flexneri; formulation type Lactate)?
A: The MIC was 2 ppm.

Q: What about the MIC (Shigella flexneri; formulation type Water/Lecithin) of the same molecule?
A: Its MIC is 2 ppm.

Q: What about the MIC (Shigella flexneri; formulation type Water/PVA) of the same molecule?
A: The MIC was 1 ppm.

Q: And the MIC (Streptococcus pneumoniae; S. pneumo (clin 314))?
A: Its MIC is 11 µg/mL.

Q: And the MIC (Streptococcus pneumoniae; S. pneumo (clin 315))?
A: Its MIC is 21 µg/mL.

Q: And the MIC (Streptococcus pyogenes; S. pyog (clin. 303))?
A: The MIC was 3 µg/mL.

Q: What about the MIC (Streptococcus pyogenes; S. pyog (clin. 304)) of the same molecule?
A: Its MIC is 5 µg/mL.

Q: And the MBC (E. coli; [7])?
A: Its MBC is 0.4 parts silver per million.

Q: And the MBC (E. coli; [8])?
A: The MBC was 0.4 parts silver per million.

Q: What about the MBC (Ps. aeruginosa) of the same molecule?
A: Its MBC is 3 parts silver per million.

Q: What about the MIC (Serratia marcescens; [5]) of the same molecule?
A: Its MIC is 6 parts silver per million.

Q: What about the MIC (Serratia marcescens; [6]) of the same molecule?
A: Its MIC is 6 parts silver per million and 11 parts silver per million.

Q: And the MBC (Staph epidermidis)?
A: Its MBC is 3 parts silver per million.

Q: What about the MIC (Escherichia coli; [7]) of the same molecule?
A: The MIC was 0.4 parts silver per million.

Q: And the MIC (Escherichia coli; [8])?
A: Its MIC is 1 parts silver per million.

Q: What about the MIC (Escherichia coli; E. coli (ATCC), lactate solutions, nanocrystalline silver = range for 12 samples) of the same molecule?
A: The MIC was 3 µg/mL.

Q: What about the MBC (Staph. aureus; [3]) of the same molecule?
A: Its MBC is 6 parts silver per million.

Q: And the MBC (Staph. aureus; [4])?
A: The MBC was 6 parts silver per million.

Q: And the “minimum inhibitory concentration (MIC)” value [2]?
A: Its value is 2.5 μg/ml silver.

Q: What about the MIC (Pseudomonas aeruginosa; P. aerug (ATCC), lactate solutions, nanocrystalline silver = range for 12 samples) of the same molecule?
A: Its MIC is 3 µg/mL.

Q: What about the MIC (Pseudomonas aeruginosa; P. aerug. (clin.), lactate solutions, nanocrystalline silver = range for 12 samples) of the same molecule?
A: The MIC was 3 µg/mL.

Q: What about the MIC (Pseudomonas aeruginosa; P. aeruginosa isolate NP212, formulation type Lactate) of the same molecule?
A: The MIC was 2 ppm.

Q: What about the MIC (Pseudomonas aeruginosa; P. aeruginosa isolate NP212, formulation type Water/Lecithin) of the same molecule?
A: The MIC was 3 ppm.

Q: What about the MIC (Pseudomonas aeruginosa; P. aeruginosa isolate NP212, formulation type Water/PVA) of the same molecule?
A: The MIC was 3 ppm.

Q: What about the MIC (Pseudomonas aeruginosa; Ps. aeruginosa 9027 (ATCC type strain)) of the same molecule?
A: The MIC was 1 parts silver per million.

Q: And the MIC (Pseudomonas aeruginosa; Ps. aeruginosa 27317 (ATCC type strain))?
A: Its MIC is 2 parts silver per million.
